2 compounds from US20230414826A1, “FIBRIN HYDROGELS” (Mayo Foundation for Medical Education and Research, priority 2020, published 2023) can be followed below.

For this experiment, the target named is T1, fibrin gels (40 mg/mL fibrinogen, 33 U/mL thrombin) (Homo sapiens, UniProt P02671+P02675+P02679).
T1 construct: purchased Ethicon (Evicel)
T1 sequence (P02671 20-644 isoform P02671-2 limits assumed): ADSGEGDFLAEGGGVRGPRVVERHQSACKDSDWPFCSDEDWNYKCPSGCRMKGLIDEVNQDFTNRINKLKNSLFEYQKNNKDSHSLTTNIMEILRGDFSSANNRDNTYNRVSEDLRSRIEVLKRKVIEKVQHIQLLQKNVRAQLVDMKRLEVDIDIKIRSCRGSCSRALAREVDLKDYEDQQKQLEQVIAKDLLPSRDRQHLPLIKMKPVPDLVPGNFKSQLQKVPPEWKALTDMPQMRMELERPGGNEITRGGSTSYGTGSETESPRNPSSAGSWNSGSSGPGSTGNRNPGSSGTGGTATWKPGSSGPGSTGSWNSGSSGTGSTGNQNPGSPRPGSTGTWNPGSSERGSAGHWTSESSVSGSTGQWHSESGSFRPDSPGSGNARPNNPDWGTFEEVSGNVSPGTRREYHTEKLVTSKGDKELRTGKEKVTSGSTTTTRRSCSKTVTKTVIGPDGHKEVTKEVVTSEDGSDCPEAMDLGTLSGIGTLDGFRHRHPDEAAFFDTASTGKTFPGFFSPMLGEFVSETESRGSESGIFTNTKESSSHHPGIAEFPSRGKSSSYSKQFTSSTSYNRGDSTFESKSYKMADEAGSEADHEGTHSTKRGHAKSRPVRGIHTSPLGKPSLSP
T1 sequence (P02675 45-491 limits assumed): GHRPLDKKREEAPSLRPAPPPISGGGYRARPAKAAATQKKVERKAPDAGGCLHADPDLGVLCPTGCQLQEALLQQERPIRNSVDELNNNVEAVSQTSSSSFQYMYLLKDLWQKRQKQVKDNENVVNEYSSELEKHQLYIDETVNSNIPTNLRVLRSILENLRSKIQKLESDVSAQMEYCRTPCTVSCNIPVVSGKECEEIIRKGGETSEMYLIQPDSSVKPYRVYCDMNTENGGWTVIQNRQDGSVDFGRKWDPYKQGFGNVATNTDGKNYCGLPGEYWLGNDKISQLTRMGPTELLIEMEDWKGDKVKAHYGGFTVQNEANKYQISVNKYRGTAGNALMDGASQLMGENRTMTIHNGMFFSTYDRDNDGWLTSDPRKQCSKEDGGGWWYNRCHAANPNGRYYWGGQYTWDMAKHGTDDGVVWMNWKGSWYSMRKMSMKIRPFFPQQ
T1 sequence (P02679 27-437 isoform P02679-2 limits assumed): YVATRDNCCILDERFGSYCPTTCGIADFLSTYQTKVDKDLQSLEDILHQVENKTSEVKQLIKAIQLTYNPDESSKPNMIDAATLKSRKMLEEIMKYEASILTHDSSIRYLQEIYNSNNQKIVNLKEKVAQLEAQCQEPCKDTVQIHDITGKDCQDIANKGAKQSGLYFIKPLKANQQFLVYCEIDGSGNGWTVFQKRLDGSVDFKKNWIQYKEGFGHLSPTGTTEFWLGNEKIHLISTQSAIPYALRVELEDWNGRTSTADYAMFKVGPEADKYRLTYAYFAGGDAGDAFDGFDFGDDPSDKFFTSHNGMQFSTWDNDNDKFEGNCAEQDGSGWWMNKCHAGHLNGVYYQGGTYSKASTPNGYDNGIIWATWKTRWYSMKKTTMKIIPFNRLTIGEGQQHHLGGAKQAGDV
Briefly: Biexponential modeling of shear modulus (g′) versus time data. The note with it: biexponential model; for time shift parameter (xc): 0.12% dye, n=3; for G′1: fast rate associated parameter; for G′1 / r1 / G′2 / r2 / xc: avg ± sd, n = 3; for r1: fast rate constant; for G′2: slow rate associated parameter; for r2: slow rate constant; for xc: time shift parameter. On the procedure: Modeling was performed using the shear modulus (g′) versus time data for each time sweep performed with gels with a final concentration of 40 mg/mL fibrinogen, 33 U/mL thrombin, and 0.12% dye. A biexponential model was used as described elsewhere (see, e.g., Wedgwood et al., Macromolecular Symposia, 334:117-25 (2013); and Moreno-Arotzena et al., Materials (Basel), 8:1636-51 (2015)). The following equation was used: […]
This equation model assumes a fast (1) and slow (2) kinetic rate. As such G′1 and G′2 are the respective rate associated parameters, r1 and r2 are the respective rates constants, and Xc is a time shift parameter. Modeling was performed using MATLAB (Mathworks; Natick, MA), using the model fit function. Parameters were defined with r1>r2 and xc as positive. Each sample run was best fitted to the model to generate an r^2>0.98.
Previous work has fitted fibrin gelation kinetics to a biexponential model (see, e.g., Moreno-Arotzena et al., Materials (Basel), 8:1636-51 (2015)). In this model, gelation, as measured by the shear modulus over time, consists of a fast and slow reaction rate. Each time sweep series was fitted to the biexponential model to determine the fast (1) and slow (2) associated parameters, reaction rates and time shift parameter (Table 2 and FIG. 9). The time shift parameters (xc) for the PBS, TB, EB, and PEG groups were 19.7±7.2, 62.9±9.7, 110.6±7.6, and 20.3±5.0 sec (n=3, p<0.001) (FIG. 9A). […] This re-affirms the shifted delay in gelation onset for TB and EB groups and confirms that the effect is not due to changes in molality. To understand if there is a change in reaction rates, the ratio of the fast to slow reaction rate was compared. The ratios, r1/r2, for PBS, TB, EB and PEG groups were […] (n=3, p=0.057) (FIG. 9B).

As for `Cc1cc(-c2ccc(/N=N/c3ccc4c(S(=O)(=O)O)cc(S(=O)(=O)O)c(N)c4c3O)c(C)c2)ccc1/N=N/c1ccc2c(S(=O)(=O)O)cc(S(=O)(=O)O)c(N)c2c1O` [EB, Evans Blue], the “time shift parameter (xc)” value stood at 110.6 ± 7.6 s, the “G′1” value is recorded as 927 ± 395, the r1 was determined as 3720 ± 732 and the “G′2” value worked out at 787 ± 210. Besides, the r2 came out at 739 ± 205 and the xc stood at 111 ± 8.

On to `Cc1cc(-c2ccc(/N=N/c3c(S(=O)(=O)O)cc4cc(S(=O)(=O)O)cc(N)c4c3O)c(C)c2)ccc1/N=N/c1c(S(=O)(=O)O)cc2cc(S(=O)(=O)O)cc(N)c2c1O` [TB, Trypan Blue], for which the “time shift parameter (xc)” value worked out at 62.9 ± 9.7 s, the “G′1” value was determined as 1555 ± 92, the r1 turned out to be 2679 ± 366 and the “G′2” value came to 800 ± 186. Moreover, the r2 was found to be 455 ± 131 and the xc was found to be 63 ± 10.
